Test results reported in EP4631938A1, “NITROGEN-CONTAINING HETEROCYCLE WITH SEROTONIN RECEPTOR-BINDING ACTIVITY AND CARBOCYCLIC DERIVATIVE” (Shionogi & Co., Ltd, priority 2022, dated 2024).
Like-named read-outs stand apart in the source and are kept apart here.

Key:
[1] = biological target: T1, human recombinant 5-HT2C receptor (Homo sapiens, UniProt P28335); test: Test Example 2-2: 5-HT2C receptor binding inhibition test ([3H]-Mesulergine; non-specific ligand Ketanserin); conditions: non-specific binding with 500 µmol/L Ketanserin, 37°C, 2 hours
T1 construct: expressed in transfected cells; host or cells: Jump-In HEK cells (membrane preparation)
T1 sequence (P28335 33-458): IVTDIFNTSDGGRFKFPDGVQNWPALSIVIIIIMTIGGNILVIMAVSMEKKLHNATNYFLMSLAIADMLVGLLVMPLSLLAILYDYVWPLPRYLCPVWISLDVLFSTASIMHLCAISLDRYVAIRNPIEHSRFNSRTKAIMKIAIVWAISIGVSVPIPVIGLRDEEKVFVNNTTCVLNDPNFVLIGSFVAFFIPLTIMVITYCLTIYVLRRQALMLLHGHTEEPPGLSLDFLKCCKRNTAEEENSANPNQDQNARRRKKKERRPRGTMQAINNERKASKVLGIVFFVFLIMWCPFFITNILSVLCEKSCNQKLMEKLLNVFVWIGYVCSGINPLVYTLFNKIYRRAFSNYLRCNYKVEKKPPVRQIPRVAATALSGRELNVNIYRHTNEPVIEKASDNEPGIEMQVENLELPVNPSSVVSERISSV
Protocol: The Kd value is calculated when the lot of the cell membrane is changed. 1 mmol/L non-specific binding calculating compound dissolved in DMSO or DMSO is previously dispensed to the microplate by 0.5 µL, and the cell membrane is diluted with an Assay buffer. The radioactive ligand solution is diluted step by step, and counts are checked with a liquid scintillator. The Assay buffer containing diluted cell membranes is dispensed by 50 µL/well into the microplate. The radioactive ligand solution is then dispensed by 50 µL/well into the microplate and the plate is sealed. The microplate is allowed to stand at 37°C for 2 hours. During this time, 50 mmol/L Tris-HCl (pH 7.4) is dispensed by 50 µL/well into the UniFilter plate and allowed to stand at 4°C for 1 hour or longer. Thereafter, filtration is performed with a Cell Harvester (PerkinElmer). The radioactive ligand solution is dispensed by 10 µL/well into empty wells of the UniFilter plate. After drying the UniFilter plate at room temperature, MicroScinti20 is dispensed by 50 µL/well into the UniFilter plate, and the plate is sealed. UniFilter plate is allowed to stand at room temperature overnight. The radioactivity of [^3H]-Mesulergine bound to the 5-HT2C receptor is measured using Microbeta2 (PerkinElmer) at a measurement time of 1 min/well. The Saturation curve is drawn from the measured value, and the Kd value is calculated from the slope of the Scatchard Plot.
A compound solution dissolved in DMSO is dispensed to a microplate by 0.5 µL, and a cell membrane and a hot ligand are each diluted with an Assay buffer. The Assay buffer containing diluted cell membrane is then dispensed by 50 µL/well into the microplate. The radioactive ligand solution is then dispensed by 50 µL/well into the microplate and the plate is sealed. The microplate is then allowed to stand at 37°C for 2 hours. During this time, 50 mmol/L Tris-HCl (pH 7.4) is dispensed by 50 µL/well into the UniFilter plate and allowed to stand at 4°C for 1 hour or longer. Thereafter, filtration is performed with a Cell Harvester (PerkinElmer). After drying the UniFilter plate at room temperature, MicroScinti20 is dispensed by 50 µL/well into the UniFilter plate, and the plate is sealed. UniFilter plate is allowed to stand at room temperature overnight. The radioactivity of [^3H]-Mesulergine bound to the 5-HT2C receptor is measured using Microbeta2 (PerkinElmer) at a measurement time of 1 min/well. Non-specific binding is calculated from the radioactivity of [^3H]-Mesulergine in the presence of 500 µmol/L Ketanserin of unlabeled ligand, and total binding is calculated from the radioactivity of [^3H]-Mesulergine in the absence of the compound of the present invention (Vehicle). Finally, the Ki value is calculated from the dose-response curve.
(The binding activity of the compound according to the present invention is calculated from the following binding inhibition rate (%).) Inhibition rate (%) = [1−(c−a)/(b−a)] × 100 [formula] • a; average cpm of non-specific binding • b; average cpm of total binding • c; cpm in the presence of the test compound
The compounds of the present invention were tested essentially as described above.

[2] = biological target: T2, human recombinant 5-HT2A receptor (Homo sapiens, UniProt P28223); test: Test Example 1-2: 5-HT2A receptor binding inhibition test ([3H]-Ketanserin; non-specific ligand Ketanserin)
T2 construct: expressed in transfected cells; host or cells: Jump-In HEK cells (membrane preparation)
In short: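 Membranes expressing the receptor were incubated with [3H]-ketanserin and compound for 1.5 h at 25 °C, then filtered onto plates presoaked in 50 mmol/L Tris-HCl pH 7.4 and scintillation-counted. Non-specific binding was defined with 500 µmol/L unlabeled ketanserin. Ki was taken from dose-response curves, with Kd set for each membrane lot by Scatchard analysis.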

[3] = [3H]-Ketanserin, non-specific binding with 500 µmol/L Ketanserin, room temperature (25°C), 1.5 hours, read-out: h 5-HT2A Ki

T2 sequence (P28223 whole entry): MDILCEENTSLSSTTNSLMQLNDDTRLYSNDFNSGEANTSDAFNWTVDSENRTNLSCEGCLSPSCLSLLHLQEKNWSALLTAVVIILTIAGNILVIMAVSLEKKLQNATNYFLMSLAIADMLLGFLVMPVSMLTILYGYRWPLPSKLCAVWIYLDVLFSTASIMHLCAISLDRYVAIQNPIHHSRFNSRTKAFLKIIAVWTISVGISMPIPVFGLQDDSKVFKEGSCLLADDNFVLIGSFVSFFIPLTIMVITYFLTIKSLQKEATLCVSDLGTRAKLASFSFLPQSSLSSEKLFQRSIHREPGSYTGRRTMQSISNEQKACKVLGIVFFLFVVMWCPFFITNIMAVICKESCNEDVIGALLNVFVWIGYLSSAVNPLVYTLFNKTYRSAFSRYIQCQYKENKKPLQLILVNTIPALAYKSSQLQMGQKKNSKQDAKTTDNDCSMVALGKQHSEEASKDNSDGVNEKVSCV

Compound | Ki [1] | Ki [2] | Ki [2, 3]
Cn1ncc(Br)c1-c1nc(Nc2ccc(C(F)(F)F)cn2)ccc1OCCO [Compound I-073] | 0.936 nM | 0.184 nM | –
Cc1cnn(C2CC2)c1-c1cc(Nc2ncc(C(F)(F)F)cc2F)ccc1OCCO [Compound I-074] | 0.843 nM | – | 0.236 nM
Cc1cnn(C)c1-c1cc(Nc2ccc(C(F)(F)F)cn2)ccc1OCCO [Compound I-075] | 0.939 nM | – | 0.149 nM
Cn1ncc(Br)c1-c1cc(Nc2nc3cnccc3s2)ccc1OCCO [Compound I-076] | 3 nM | – | 0.211 nM
Cn1ncc(Br)c1-c1cc(Nc2nc3cc(F)ccc3[nH]2)ccc1OCCO [Compound I-077] | 3.25 nM | – | 0.23 nM
Cn1ncc(Br)c1-c1cc(Nc2nc3cc(Cl)ccc3[nH]2)ccc1OCCO [Compound I-078] | 1.1 nM | – | 0.263 nM
COc1cnc(Nc2ccc(OCCO)c(-c3c(Br)cnn3C)c2)c(F)c1 [Compound I-079] | 0.625 nM | – | 0.295 nM
Cn1ncc(Br)c1-c1cc(Nc2ccc(C(C)(F)F)cn2)ccc1OCCO [Compound I-080] | 2.74 nM | – | 0.445 nM
Cn1ncc(Br)c1-c1cc(Nc2ccc(C(F)(F)F)cn2)cnc1OCCO [Compound I-081] | 0.457 nM | – | 0.202 nM
Cc1cnn(C)c1-c1cc(Nc2ncc(C(F)(F)F)cc2F)cnc1OCCO [Compound I-083] | 2.97 nM | – | 0.289 nM
Cn1ncc(Br)c1-c1cc(Nc2nc3cc(Br)ccc3n2C)ccc1OCCO [Compound I-084] | 0.297 nM | – | 0.442 nM
COc1ccc2nc(Nc3ccc(OCCO)c(-c4c(Br)cnn4C)c3)sc2c1 [Compound I-085] | 0.55 nM | – | 0.192 nM
Cn1ncc(F)c1-c1cc(Nc2ncc(Cl)cc2F)ccc1OCCO [Compound I-086] | 8.84 nM | – | 0.205 nM
Cn1ncc(C#N)c1-c1cc(Nc2ncc(C(F)(F)F)cc2F)cnc1OCCO [Compound I-087] | 6.37 nM | – | 0.241 nM
Cc1cnn(C)c1-c1cc(Nc2ncc(Cl)cc2F)ncc1OCCO [Compound I-088] | 8.31 nM | – | 0.267 nM
Cn1ncc(Br)c1-c1cc(Nc2ncc(F)cc2F)ncc1OCCO [Compound I-089] | 3 nM | – | 0.412 nM
Cn1ncc(Br)c1-c1cc(Nc2ccc(Cl)cn2)ccc1OCCO [Compound I-090] | 0.575 nM | – | 0.203 nM
Cn1ncc(Br)c1-c1cc(Nc2ccc(C(F)F)cn2)ccc1OCCO [Compound I-091] | 8.99 nM | – | 0.197 nM
Cn1ncc(Br)c1-c1cc(Nc2nc3ccc(F)cc3n2C)ccc1OCCO [Compound I-092] | 2.76 nM | – | 0.274 nM
Cn1ncc(Br)c1-c1cc(Nc2ccc(C3CCC3)cn2)ccc1OCCO [Compound I-093] | 0.325 nM | – | 0.283 nM
Cn1ncc(Br)c1-c1cc(Nc2ccc(CC(F)(F)F)cn2)ccc1OCCO [Compound I-094] | 0.202 nM | – | 0.258 nM

Compound | Ki [1] | Ki [2] | Ki [2, 3]
Cn1cnc(Cl)c1-c1cc(Nc2ncc(C(F)(F)F)cc2F)ccc1OCCO [Compound I-095] | 0.761 nM | – | 0.372 nM
Cn1cnc(Br)c1-c1cc(Nc2ncc(Cl)cc2F)ccc1OCCO [Compound I-096] | 1.66 nM | – | 0.341 nM
Cc1nc(C)c(-c2cc(Nc3ncc(C(F)(F)F)cc3F)ccc2OCCO)c(C)n1 [Compound I-097] | 1.34 nM | – | 0.509 nM
Cc1nc(C)c(-c2cc(Nc3ncc(Cl)cc3F)ccc2OCCO)c(C)n1 [Compound I-098] | 3.18 nM | – | 0.559 nM
Cn1ncc(C#N)c1-c1cc(Nc2ccc(C(F)(F)F)cn2)ccc1OCCO [Compound I-099] | 7.15 nM | – | 0.224 nM
Cc1ncnc(C)c1-c1cc(Nc2ccc(C(F)(F)F)cn2)ccc1OCCO [Compound I-100] | 6.82 nM | – | 0.27 nM
Cn1ncc(Br)c1-c1cc(Nc2nc3cc(F)ccc3n2C)ccc1OCCO [Compound I-101] | 3.11 nM | – | 0.497 nM
Cn1ncc(C#N)c1-c1cc(Nc2ccc(Cl)cn2)ccc1OCCO [Compound I-102] | 7.3 nM | – | 0.265 nM
Cc1ncnc(C)c1-c1cc(Nc2ccc(Cl)cn2)ccc1OCCO [Compound I-103] | 9.13 nM | – | 0.351 nM
Cn1ncc(Br)c1-c1cc(Nc2nc(C3CC3)ns2)ccc1OCCO [Compound I-104] | 6.13 nM | – | 0.39 nM
Cn1ncc(Br)c1-c1cc(Nc2ncc(C(F)(F)F)cn2)ccc1OCCO [Compound I-105] | 0.6 nM | – | 0.314 nM
Cn1cnc(F)c1-c1cc(Nc2ncc(C(F)(F)F)cc2F)ccc1OCCO [Compound I-106] | 7.28 nM | – | 0.409 nM
Cc1cc(OCCO)c(-c2c(C#N)cnn2C)cc1Nc1ncc(C(F)(F)F)cc1F [Compound I-107] | 99.3 nM | – | 1.67 nM
Cn1ncc(C#N)c1-c1cc(Nc2ncc(C(F)(F)F)cc2F)c(Cl)cc1OCCO [Compound I-109] | 15.4 nM | 0.598 nM | –
Cn1ncc(C#N)c1-c1cc(Nc2ncc(C(F)(F)F)cc2F)cc(F)c1OCCO [Compound I-110] | 17.3 nM | – | 0.375 nM
Cn1ncc(Br)c1-c1cc(Nc2nccc3cccnc23)ccc1OCCO [Compound I-111] | 24.2 nM | – | 2.98 nM
Cn1ncc(Br)c1-c1cc(Nc2nccc3ccccc23)ccc1OCCO [Compound I-112] | 25.5 nM | – | 0.276 nM
Cn1ncc(Br)c1-c1cc(Nc2ncc(Cl)c3ccccc23)ccc1OCCO [Compound I-113] | 3.09 nM | – | 0.295 nM
Cn1ncc(Br)c1-c1cc(Nc2nccn3c(Br)cnc23)ccc1OCCO [Compound I-114] | 4.68 nM | – | 1.56 nM
Cn1ncc(Cl)c1-c1cc(Nc2ncc(C(F)(F)F)cc2F)ncc1OCCO [Compound I-115] | 0.818 nM | – | 0.265 nM
Cn1ncc(Br)c1-c1cc(Nc2ccc(Cl)cn2)cnc1OCCO [Compound I-116] | 0.745 nM | – | 0.325 nM
